Results on 36 molecules are retold here after patent US8088806B2 (Achillion Pharmaceuticals, Inc., priority 2005, dated 2012).

The assay concerns HCV replicon. Put plainly: Replicon based assay of HCV replication inhibition (NPT ELISA). Type of assay: cell-based, Hepatitis C virus. The note with it: Hepatitis C virus, Huh-7, 72 h, Table I; Huh-7 HCV replicon-containing cells, three days; read-out: Activity. As to the method:
Compounds claimed herein are tested for the ability to inhibit viral replication of the Hepatitis C replicon in cultured cells in which the HCV replicon construct has been incorporated. The HCV replicon system was described by Bartenschlager, et. al (Science, 285, pp. 110-113 (1999)). The replicon system is predictive of in vivo anti-HCV activity; compounds that are active in humans uniformly evidence activity in the replicon assay.
In this assay HCV replicon containing cells are treated with different concentrations of the test compound to ascertain the ability of the test compound to suppress replication of the HCV replicon. As a positive control, HCV replicon-containing cells are treated with different concentrations of interferon alpha, a known inhibitor of HCV replication. The replicon assay system includes Neomycin Phosphotransferase (NPT) as a component of the replicon itself in order to detect the transcription of replicon gene products in the host cell. Cells in which the HCV replicon is actively replicating have high levels of NPT; the level of NPT is proportional to HCV replication. […] The NPT level of each sample is measured using a captured ELISA.
A protocol for testing compounds for the ability to inhibit viral replication of the Hepatitis C replicon cultured cells in which the replicon construct has been incorporated, follows.
The HCV replicon contains, 5′-3′, the HCV-IRES, the neomycin phosphotransferase (neo) gene, the IRES of encephalomyocarditis virus, which directs translation of HCV sequences NS3 to NS5B, and the 3′-NTR. The sequence of the HCV replicon has been deposited in GenBank (Accession no. AJ242652).
The replicon is transfected into Huh-7 cells using standard methods such as electroporation.
The equipment and materials include, but are not limited to, Huh-7 HCV replicon-containing cells, maintenance media (DMEM (Dulbecco's modified Eagle media) supplemented with 10% FBS, L-glutamine, non-essential amino acids, penicillin (100 units/ml), streptomycin (100 micrograms/ml), and 500 micrograms/ml of Geneticin (G418), screening media (DMEM supplemented with 10% FBS, L-glutamine, non-essential amino acids, penicillin (100 units/ml) and streptomycin (100 micrograms/ml)), 96 well tissue culture plates (flat bottom), 96 well plates (U bottom for drug dilution), Interferon alpha for positive control, fixation reagent (such as methanol: acetone), primary antibody (rabbit anti-NPTII), secondary antibody: Eu-N1l, and enhancement solution.
The cells are then seeded onto 96-well plates at a density of 6000-7500 cells/100 microliters/well (6-7.5×10^5 cells/10 ml/plate). The plates are then incubated at 37° C. in a 5% CO2 incubator.
HCV replicon-containing cells are rinsed with once PBS once; 2 mls of trypsin are then added. Cells are incubated at 37° C. in a 5% CO2 incubator for 3-5 minutes. 10 mls of complete medium is added to stop the reaction. Cells are blown gently, put into a 15 ml tube, and spun at 1200 rpm for four minutes. The trypsin/medium solution is removed and 5 mls of medium (500 ml DMEM (high glucose)) from BRL catalog #12430-054; 50 mls 10% FBS, 5% Geneticin G418 (50 mg/ml, BRL catalog #10131-035), 5 ml MEM non-essential amino acids (100×BRL #11140-050) and 5 ml pen-strep (BRL # 15140-148) is added. The cells and media are mixed carefully
Cells are plated with screening medium (500 ml DMEM (BRL #21063-029), 50 ml FBS (BRL #10082-147) and 5 ml MEM non-essential amino acid (BRL #11140-050) at 6000-7500 cells/100 μl/well of 96 well plate (6-7.5×10^5 cells/10 ml/plate). Plates are placed into 37° C. 5% CO2 incubator overnight.
The following morning, drugs (test compounds or interferon alpha) are diluted in 96 well U bottom plates with media or DMSO/media, depending on the final concentration chosen for screening. Generally for 6 concentrations of each test compounds ranging from 10 micromolar to 0.03 micromolar are applied. […]
On the technique in general: Replicon systems follow genome replication, usually without infectious particles.
Turning to `CCCCCOc1ccc(Nc2nc(C(N)=O)cs2)cc1C(F)(F)F` [compound 18, 2-(3-(trifluoromethyl)-4-(pentyloxy)phenylamino)thiazole-4-carboxamide], the EC50 is less than 1 µM.

Take `CCCCCc1ccc(Nc2nc(-c3ccc(F)cc3)cs2)cc1` [compound 19, 4-(4-fluorophenyl)-N-(4-pentylphenyl)thiazol-2-amine]: the EC50 is less than 1 µM. The value for `CCCCCc1ccc(Nc2nc(-c3ccc(Cl)cc3)cs2)cc1` [compound 20, 4-(4-chlorophenyl)-N-(4-pentylphenyl)thiazol-2-amine] was less than 1 µM; that for `CCCCCOc1ccc(Nc2nc(-c3ccc(F)cc3)cs2)cc1` [compound 21, 4-(4-fluorophenyl)-N-(4-(pentyloxy)phenyl)thiazol-2-amine] was less than 1 µM. Turning to `CCCCCc1ccc(Nc2nc(-c3ccc(Cl)c(Cl)c3)cs2)cc1` [compound 22, 4-(3,4-dichlorophenyl)-N-(4-pentylphenyl)thiazol-2-amine], the EC50 is less than 1 µM.

For the molecule `CCCCCOc1ccc(Nc2nc(-c3ccc(Cl)c(Cl)c3)cs2)cc1` [compound 24, 4-(3,4-dichlorophenyl)-N-(4-(pentyloxy)phenyl)thiazol-2-amine], the EC50 was less than 1 µM. Regarding `CCCCCOc1ccc(Nc2nc(-c3ccc(Cl)cc3)cs2)cc1` [compound 26, 4-(4-chlorophenyl)-N-(4-(pentyloxy)phenyl)thiazol-2-amine], the EC50 was less than 1 µM. Regarding `Fc1ccc(-c2csc(Nc3cccc(OCc4ccccc4)c3)n2)cc1` [compound 27, N-(3-(benzyloxy)phenyl)-4-(4-fluorophenyl)thiazol-2-amine], the EC50 was less than 1 µM. The value for `Clc1ccc(-c2csc(Nc3cccc(OCc4ccccc4)c3)n2)cc1Cl` [compound 28, N-(3-(benzyloxy)phenyl)-4-(3,4-dichlorophenyl)thiazol-2-amine] was less than 1 µM; that for `Clc1ccc(-c2csc(Nc3cccc(OCc4ccccc4)c3)n2)cc1` [compound 30, N-(3-(benzyloxy)phenyl)-4-(4-chlorophenyl)thiazol-2-amine] was less than 1 µM; that for `Fc1ccc(-c2csc(Nc3cccc(Oc4ccccc4)c3)n2)cc1` [compound 31, 4-(4-fluorophenyl)-N-(3-phenoxyphenyl)thiazol-2-amine] was less than 1 µM.

On to `Clc1ccc(-c2csc(Nc3cccc(Oc4ccccc4)c3)n2)cc1Cl` [compound 32, 4-(3,4-dichlorophenyl)-N-(3-phenoxyphenyl)thiazol-2-amine], for which the EC50 was less than 1 µM. For `Clc1ccc(-c2csc(Nc3cccc(Oc4ccccc4)c3)n2)cc1` [compound 34, 4-(4-chlorophenyl)-N-(3-phenoxyphenyl)thiazol-2-amine], the EC50 is less than 1 µM.

Consider `Fc1ccc(-c2csc(Nc3cccc(Cc4ccccc4)c3)n2)cc1` [compound 35, N-(3-benzylphenyl)-4-(4-fluorophenyl)thiazol-2-amine], for which the EC50 is more than 10 µM.

For `Clc1ccc(-c2csc(Nc3cccc(Cc4ccccc4)c3)n2)cc1Cl` [compound 36, N-(3-benzylphenyl)-4-(3,4-dichlorophenyl)thiazol-2-amine], the EC50 was less than 1 µM. Consider `Clc1ccc(-c2csc(Nc3cccc(Cc4ccccc4)c3)n2)cc1` [compound 38, N-(3-benzylphenyl)-4-(4-chlorophenyl)thiazol-2-amine], for which the EC50 was less than 1 µM.

Consider `Fc1ccc(-c2csc(Nc3ccc(Cc4ccccc4)cc3)n2)cc1` [compound 39, N-(4-benzylphenyl)-4-(4-fluorophenyl)thiazol-2-amine], for which the EC50 was more than 10 µM.

Turning to `Clc1ccc(-c2csc(Nc3ccc(Cc4ccccc4)cc3)n2)cc1Cl` [compound 40, N-(4-benzylphenyl)-4-(3,4-dichlorophenyl)thiazol-2-amine], the EC50 was more than 10 µM. Next, `Fc1ccc(-c2csc(Nc3ccc(Cc4ccccc4)cc3)n2)c(F)c1` [compound 41, N-(4-benzylphenyl)-4-(2,4-difluorophenyl)thiazol-2-amine]: more than 10 µM; `Clc1ccc(-c2csc(Nc3ccc(Cc4ccccc4)cc3)n2)cc1` [compound 42, N-(4-benzylphenyl)-4-(4-chlorophenyl)thiazol-2-amine]: more than 10 µM. Next, `Fc1ccc(-c2csc(Nc3ccc(OC(F)(F)F)cc3)n2)cc1` [compound 43, 4-(4-fluorophenyl)-N-(4-(trifluoromethoxy)phenyl)thiazol-2-amine]: more than 10 µM. For `FC(F)(F)Oc1ccc(Nc2nc(-c3ccc(Cl)c(Cl)c3)cs2)cc1` [compound 44, 4-(3,4-dichlorophenyl)-N-(4-(trifluoromethoxy)phenyl)thiazol-2-amine], the EC50 was more than 10 µM. Next, `Fc1ccc(-c2csc(Nc3ccc(OC(F)(F)F)cc3)n2)c(F)c1` [compound 45, 4-(2,4-difluorophenyl)-N-(4-(trifluoromethoxy)phenyl)thiazol-2-amine]: more than 10 µM. The value for `FC(F)(F)Oc1ccc(Nc2nc(-c3ccc(Cl)cc3)cs2)cc1` [compound 46, 4-(4-chlorophenyl)-N-(4-(trifluoromethoxy)phenyl)thiazol-2-amine] was more than 10 µM; that for `Fc1ccc(-c2csc(Nc3ccc(Cl)c(Cl)c3)n2)cc1` [compound 47, N-(3,4-dichlorophenyl)-4-(4-fluorophenyl)thiazol-2-amine] was less than 1 µM; that for `Clc1ccc(Nc2nc(-c3ccc(Cl)c(Cl)c3)cs2)cc1Cl` [compound 48, N,4-bis(3,4-dichlorophenyl)thiazol-2-amine] was less than 1 µM. Next, `Fc1ccc(-c2csc(Nc3ccc(Cl)c(Cl)c3)n2)c(F)c1` [compound 49, N-(3,4-dichlorophenyl)-4-(2,4-difluorophenyl)thiazol-2-amine]: less than 1 µM. As to `Clc1ccc(-c2csc(Nc3ccc(Cl)c(Cl)c3)n2)cc1` [compound 50, N-(3,4-dichlorophenyl)-4-(4-chlorophenyl)thiazol-2-amine], the EC50 was more than 10 µM. `N#Cc1ccc(Nc2nc(-c3ccc(F)cc3)cs2)cc1` [compound 51, 4-(4-(4-fluorophenyl)thiazol-2-ylamino)benzonitrile]: the EC50 is more than 10 µM. Turning to `N#Cc1ccc(Nc2nc(-c3ccc(Cl)c(Cl)c3)cs2)cc1` [compound 52, 4-(4-(3,4-dichlorophenyl)thiazol-2-ylamino)benzonitrile], the EC50 is more than 10 µM. The value for `N#Cc1ccc(Nc2nc(-c3ccc(F)cc3F)cs2)cc1` [compound 53, 4-(4-(2,4-difluorophenyl)thiazol-2-ylamino)benzonitrile] was more than 10 µM; that for `N#Cc1ccc(Nc2nc(-c3ccc(Cl)cc3)cs2)cc1` [compound 54, 4-(4-(4-chlorophenyl)thiazol-2-ylamino)benzonitrile] was more than 10 µM; that for `N#Cc1cccc(Nc2nc(-c3ccc(F)cc3)cs2)c1` [compound 55, 3-(4-(4-fluorophenyl)thiazol-2-ylamino)benzonitrile] was more than 10 µM.

Consider `N#Cc1cccc(Nc2nc(-c3ccc(Cl)c(Cl)c3)cs2)c1` [compound 56, 3-(4-(3,4-dichlorophenyl)thiazol-2-ylamino)benzonitrile], for which the EC50 was more than 10 µM.

Turning to `N#Cc1cccc(Nc2nc(-c3ccc(F)cc3F)cs2)c1` [compound 57, 3-(4-(2,4-difluorophenyl)thiazol-2-ylamino)benzonitrile], the EC50 was more than 10 µM. The value for `N#Cc1cccc(Nc2nc(-c3ccc(Cl)cc3)cs2)c1` [compound 58, 3-(4-(4-chlorophenyl)thiazol-2-ylamino)benzonitrile] was more than 10 µM.
